Experiments:
[1] = stability of ascorbic acid in the cream, UV determination at 266.5 nm; assay type: physicochemical; settings: cream of Example 3, 4 months at room temperature then 45° C. for one month
Procedure: The stability of the ascorbic acid contained in the cream was determined as follows.
A series of samples of the cream contained in the said small plastic jars was kept for a period of 4 months at room temperature and then in an oven at 45° C. for one month, after which the ascorbic acid content of the cream was checked.
In order to determine the ascorbic acid content, 100 mg of cream were diluted in 100 ml of 0.1 M phosphate buffer at pH 6, and the thus obtained suspension was magnetically stirred in the dark for 20 minutes. Thereafter, 30 ml of the suspension were transferred to a 50 ml centrifuge tube and 15 ml of chloroform were added. The tube was shaken for 10 minutes and then centrifuged at 6000 rpm for 5 minutes. The upper aqueous phase was directly analyzed with a UV Vis Jasco V-350 spectrophotometer, using phosphate buffer as a blank and the ascorbic acid peak at 266.5 nm was measured.
The ascorbic acid concentration was determined by means of a calibration curve made from standard solutions containing 1.0, 1.5 and 2.0 mg ascorbic acid/100 ml phosphate buffer.

[2] = stability test of the cream, twelve weeks at 45° C., viscosity check and HPLC content; assay type: physicochemical; settings: cream of Example 1, twelve weeks at 45° C.; nominal tocopherol 5, Greenselect 0.5, Leucoselect 0.5
Procedure: The cream was packed in plastics containers of 50 ml and subjected to a test to confirm the stability. A series of samples of the cream contained in the said small plastic jars was kept in an oven at 45° C. for twelve weeks, after which the viscosity of the cream was checked and found unaltered with respect to the starting value.
In addition there was the verification of the amount of polyphenols and vitamin E present in the cream at the end of the twelve weeks at 45° C., by means of an HPLC method, using a Macherey-Nagel column, Nucleosil 100-5 C18, packed with 5 μm particles (150×4.6 mm internal diameter), and a pre-column system Nucleosil 100-5 C18, CC 8/4.
The determination of free tocopherol, carried out using methanol as the eluent in isocratic conditions, with a flow rate of 1 ml/min and λ 290 nm, gave a value of 5.2%.
The determination of the polyphenol concentration in the cream was carried out using a mobile phase in binary gradient as eluent, composed of: phase A=0.3% formic acid in water and phase B=methanol; flow rate 1 ml/min; λ=278 nm. In such conditions the Greenselect® has a retention time Rt=22.84 min and the Leucoselect® Rt=6.53 min.

| ascorbic acid lost by the end of the storage period [1] [%] | ascorbic acid concentration from the calibration curve ([1]; nominal 2 mg/100 ml) [mg/100 ml] | amount present in the cream at the end of storage (HPLC) [2] [%] | Compound |
| --- | --- | --- | --- |
| 7.8 | 1.844 | – | O=C1O[C@H]([C@@H](O)CO)C(O)=C1O [ascorbic acid, Ascorbic acid] |
| – | – | 5.2 | Cc1c(C)c2c(c(C)c1O)CC[C@@](C)(CCC[C@H](C)CCC[C@H](C)CCCC(C)C)O2 [free tocopherol, Tocopherol] |

Source: patent US20160095810A1, “Cosmetic and/or dermatological compositions containing polyphenols stabilized by perfluoropolyether phosphates and use of perfluoropolyether phosphates as stabilizing agents for polyphenols” (BIO.LO.GA, priority 2003, published 2016)
